Entries after “also recorded” stand apart in the source; their conditions may differ.
Columns and labels:
[1] = tested on: BxPC-3 human pancreatic cancer cells; test: subG1 cell cycle FACS apoptosis assay, BxPC-3 cells; format: cell-based; settings: BxPC-3, Protocol B, about 24 hours; for apoptosis-inducing activity (subG1) relative to peptides SEQID No 28 and SEQID No 27: SEQID No 41 at 50 μM versus monomeric peptides at 100 μM, FIG. 19
Experimental: (§1) To transfer adherent cells (A375 and BxPC-3 cells) after culture, cells are washed twice with PBS. To detach the cells, the enzyme biotase is used according to the manufacturer's instructions. For this purpose, after washing with PBS, the cells are mixed with biotase (5 ml of biotase solution per 75 cm^2 surface of the cell culture bottles) and incubated for 5 min at 37 degrees Celsius, and the biotase is separated by centrifugation. Cells cultivated in suspension (MEC-1 and lymphocytes) were transferred by dilution. The cells are suspended in culture medium and counted, each time 1.5×10^5 cells/cm^2 are seeded in 48-well plates and cultured for between 1.5 and 24 hours at 37 degrees Celsius, 5% CO2. Peptides are pre-diluted from stock solution with culture medium and 200 μl of peptide solution added so that final concentrations of 30 to 500 μM peptide are present in at most 1% (v/v) DMSO. As control solutions, culture medium without peptide (DMSO-containing) in culture medium or etoposide solution is added. After incubating the cells for several hours, the cell supernatant is transferred to a FACS tube for each batch and, after washing the cells with PBS, the wash solution is added. Then the cells are incubated with 200 μl of biotase solution for 10 min, 37° C., the cells with the biotase are also transferred to the FACS tube and the cells are collected by centrifugation for 5 min. The cell pellet is suspended in 500 μl of serum-free culture medium, then 1.5 ml of cold 80% ethanol (ethanol/PBS-80/20, v/v, stored at −20° C.) is added, the FACS tubes sealed and stored at −20 degrees Celsius for 15 to 18 h. Thereafter, the cells are centrifuged for 5 minutes at 120 g, suspended after removal of the supernatant in 2 ml PBS and incubated at 37 degrees Celsius for 30 minutes. After re-centrifugation, the cells are suspended in 0.5 ml DAPI solution and incubated for 15 min at 20 degrees Celsius in the dark. Thereafter, the cells are stored dark for a maximum of four hours in an ice bath, followed by the FACS analysis.
The adherent cells (A375 and BxPC-3 cells and MDA-MB-231, respectively) are seeded 24 hours before induction in 6-well plates in culture medium. For this, the cells are washed with PBS, then incubated with trypsin/EDTA solution at 37 degrees Celsius and suspended in culture medium. The 6-well plates are loaded with 1×10^5 cells/cm^2 in culture medium and the cells incubated for 24 hours until induction with the peptides in the incubator. For induction, the peptides are diluted in fresh culture medium. As control solutions, culture medium without peptide (DMSO-containing) in culture medium or etoposide solution is added. The cells are washed with PBS. Thereafter the peptide solution in culture medium is added to the cells. After incubation in the incubator (37° C., 5% CO2) between 1.5 and 24 hours, the cell supernatant is transferred to 15 ml centrifuge tubes, the cells are washed with 0.75 ml PBS and then with 0.5 ml versene solution. Both washings are combined with the cell supernatant. The cells are then added with 0.5 ml of trypsin/EDTA solution and incubated at about 37° C. for at most 10 minutes until the cells detached. The cell suspension is combined with cell supernatant and washings and centrifuged at about 130 g for about 10 minutes. After removing the supernatant, the cells are suspended in 400 μl of cell culture medium (without serum) and mixed with 1.2 ml of 80% ethanol/20% PBS (v/v) and incubated for 1 to 7 days at −20° C. For analysis, the cells are centrifuged at 130 g for 10 min, suspended in 2 ml PBS, and centrifuged again for 5 min. The cells are suspended in 700 μl PI buffer and incubated for 10 min at 37° C. in the dark. Subsequently, the cells are stored dark for a maximum of four hours in an ice bath, then the FACS analysis is performed. […]

[2] = tested on: human breast carcinoma cells (MDA-MB-231); test: subG1 cell cycle FACS apoptosis assay, MDA-MB-231 cells; format: cell-based; settings: about 24 hours; for apoptosis-inducing activity (subG1) relative to peptides SEQID No 28 and SEQID No 1: MDA-MB-231, SEQID No 41 at 50 μM versus monomeric peptides at 100 μM, FIG. 18
Experimental: (§2) The adherent cells (A375 and BxPC-3 cells and MDA-MB-231, respectively) are seeded 24 hours before induction in 6-well plates in culture medium. For this, the cells are washed with PBS, then incubated with trypsin/EDTA solution at 37 degrees Celsius and suspended in culture medium. The 6-well plates are loaded with 1×10^5 cells/cm^2 in culture medium and the cells incubated for 24 hours until induction with the peptides in the incubator. For induction, the peptides are diluted in fresh culture medium. As control solutions, culture medium without peptide (DMSO-containing) in culture medium or etoposide solution is added. The cells are washed with PBS. Thereafter the peptide solution in culture medium is added to the cells. After incubation in the incubator (37° C., 5% CO2) between 1.5 and 24 hours, the cell supernatant is transferred to 15 ml centrifuge tubes, the cells are washed with 0.75 ml PBS and then with 0.5 ml versene solution. Both washings are combined with the cell supernatant. The cells are then added with 0.5 ml of trypsin/EDTA solution and incubated at about 37° C. for at most 10 minutes until the cells detached. The cell suspension is combined with cell supernatant and washings and centrifuged at about 130 g for about 10 minutes. After removing the supernatant, the cells are suspended in 400 μl of cell culture medium (without serum) and mixed with 1.2 ml of 80% ethanol/20% PBS (v/v) and incubated for 1 to 7 days at −20° C. For analysis, the cells are centrifuged at 130 g for 10 min, suspended in 2 ml PBS, and centrifuged again for 5 min. The cells are suspended in 700 μl PI buffer and incubated for 10 min at 37° C. in the dark. Subsequently, the cells are stored dark for a maximum of four hours in an ice bath, then the FACS analysis is performed.
The second method analyzes the cell cycle phases which is drawn from the relative DNA content. Cells labeled by a fluorescent dye, using either DAPI or propidium iodide (PI) were analyzed by a cell sorter. The protocols for cell cultivation, treatment and preparation and staining of the cells for the flow cytometry is given in separate examples. […] When cells die by apoptosis, cellular changes lead to diminished DNA content resulting in a new peak located before the G0/G1 peak, often called “subG1” peak (Broecker-Preuss et al. 2015; Darzynkiewicz et al., 1992; Dbaibo et al. 1998; Fischbeck et al. 2011).
The “Flowing Software 2” program is used to draw from the raw data of the flow cytometer an FSC/SSC plot. This first step is performed in order to analyze a selected cell fraction excluding cells with both small FSC and small SSC values. Therefore, a gating area is drawn in a two-dimensional FSC/SSC plot (region R-1) which contains mainly intact cells, but no small vesicles. This is initially done for each cell type using reference cells which were not incubated with substances inducing cell death. By this selection of the cell fraction, a bias is prevented which would include a very high number of small cellular vesicles (apoptotic bodies) that are formed by membrane blebbing from dying cells, which have a low DNA content but which, by their large number, would increase the fraction of presumptive subG1 cells. […] In this DNA content plot, an analytical region is drawn in the area of lower DNA content to count the cells that show a subG1 peak, as illustrated in FIG. 1. The fraction of apoptotic cells is defined as the fraction of cells with DNA content in the subG1 region as part of the total number of cells in the DNA content plot (FIG. 1).
The evaluation of the FACS analysis to determine the subG1 data was also carried out with the program Flowing Software, version 2.5.1. The fluorescence in the respective analysis channel for DAPI or propidium iodide was plotted as a histogram, the data from the respectively defined region R-1 being utilized (see FIG. 1). […]

[3] = tested on: A375 melanoma cells; test: subG1 cell cycle FACS apoptosis assay, A375 melanoma cells; format: cell-based, human; settings: A375, Protocol B, 100 μM, about 24 hours, FIG. 2
Experimental: as §1, §2
The proportion of cells which have died was determined by two methods, both rely on the analysis of cells by flow cytometry, often called FACS analysis. […]

k-k-w-m-v-v-y-f-r-k-s-g-s-g-s-k-k-w-m-v-v-y-f-r-k [SEQID No 41]
apoptosis-inducing activity (subG1) relative to peptides SEQID No 28 and SEQID No 27 [1]: at least double | apoptosis-inducing activity (subG1) relative to peptides SEQID No 28 and SEQID No 27 ([1]; listed as dimeric peptide): more than two-fold | apoptosis-inducing activity (subG1) relative to peptides SEQID No 28 and SEQID No 1 [2]: at least double | apoptosis-inducing activity (subG1) relative to peptides SEQID No 28 and SEQID No 1 ([2]; listed as dimeric peptide): more than two-fold

k-m-v-v-y-f-r [SEQID No 2]
apoptosis induction (subG1), comparison in words ([1]; 100 μM, FIG. 14): stronger apoptosis induction compared to SEQ C1 | apoptosis-inducing activity (subG1), comparison in words ([2]; MDA-MB-231, 200 μM, FIG. 13): increased apoptosis-inducing activity compared to the peptide SEQ C1

k-w-m-v-v-y-f-r [SEQID No 9]
apoptosis efficiency (subG1) in view of Peptide SEQ C1 ([1]; 100 μM, FIG. 14): at least fourfold | apoptosis efficiency (subG1) in view of Peptide SEQ No 12 ([1]; 100 μM, FIG. 14): at least threefold | apoptosis induction (subG1), comparison in words ([1]; 100 μM, FIG. 14): stronger apoptosis induction compared to SEQ C1; also recorded: strongly improved activity compared to peptide SEQID No 1 | apoptosis efficiency (subG1), comparison in words [3]: extraordinary increased activity compared to peptide SEQ C1

m-v-v-y-f-r-k [SEQID No 4]
apoptosis-inducing activity (subG1), comparison in words ([2]; MDA-MB-231, 200 μM, FIG. 13): increased apoptosis-inducing activity compared to the peptide SEQ C1

m-v-v-y-f-r-w [SEQID No 3]
apoptosis induction (subG1), comparison in words ([1]; 100 μM, FIG. 14): stronger apoptosis induction compared to SEQ C1 | apoptosis-inducing activity (subG1), comparison in words ([2]; MDA-MB-231, 200 μM, FIG. 13): increased apoptosis-inducing activity compared to the peptide SEQ C1

q-k-w-m-v-v-y-f-r-k [SEQID No 28]
apoptosis-inducing activity (subG1), comparison in words ([2]; MDA-MB-231, 100 μM, FIG. 15): higher apoptosis-inducing activity | apoptosis-inducing activity (subG1), comparison in words ([2]; MDA-MB-231, 100 μM, FIG. 15, listed as SEQID NO 28): improvement over SEQID NO 27

r-a-s-k-s-q-t-v-k-k-w-m-v-v-y-f-r-k-s-a-r [SEQID No 35]
apoptosis efficiency (subG1), in words ([1]; 100 and 200 μM, Examples 107-110): slightly higher apoptosis than the peptide sequence SEQID NO 33; also recorded: considerable efficiency to induce apoptosis in pancreatic cancer cells

r-s-t-q-k-w-m-v-v-y-f-r-k [SEQID No 40]
apoptosis efficiency (subG1), comparison in words ([1]; 100 μM, FIG. 17): weaker activity | apoptosis-inducing activity (subG1), comparison in words ([2]; MDA-MB-231, 100 μM, FIG. 16, listed as SEQID 40): slightly smaller efficiency than SEQID No 33

w-m-v-v-y-f-r [SEQID No 1]
apoptosis induction (subG1), comparison in words ([1]; 100 μM, FIG. 14): stronger apoptosis induction compared to SEQ C1 | apoptosis-inducing activity (subG1), comparison in words ([2]; MDA-MB-231, 200 μM, FIG. 13): increased apoptosis-inducing activity compared to the peptide SEQ C1

w-w-m-v-v-y-f-r [SEQID No 12]
apoptosis induction (subG1), comparison in words ([1]; 100 μM, FIG. 14): stronger apoptosis induction compared to SEQ C1 | apoptosis-inducing activity (subG1), comparison in words ([2]; MDA-MB-231, 200 μM, FIG. 13): slightly decreased activity compared to peptide SEQID No 1; also recorded: remarkably improved efficiency than SEQ C1
